# Patent US8975246B2, “Bile acid or bile salt fatty acid conjugates” (Galmed Research and Development Ltd., priority 2001, dated 2015)
# Tested on: Inbred C57J/L mice
# Assay: Liver lipid/protein ratio, mice on high fat lithogenic diet
# Assay type: in vivo
# Details: BAFAC 150 mg/Kg daily by gavage, 5 weeks
# Method: Inbred C57J/L mice, 4 weeks old and weighing approx. 20 gm (Jackson Lab. Maine, USA) were used. They were fed for 5 weeks a high fat lithogenic diet consisting of: Cholesterol 1%, Cholic Acid 0.5%, lard 10%, butter 6%, palmitic acid 1.2% and corn oil 2% added (w/w) to their regular diet. In addition to the diet the animals were given daily, by gavage, either a BAFAC (150 mg/Kg) suspended in saline or an equal volume of saline only. The BAFACs were conjugates of cholic acid (at position 3) with either Palmitic Acid (C-16) or Arachidic Acid (C-20) or Behenic Acid (C-22) using an amide bond. The controls (n=5) received saline, the test animals received either the C-16 conjugate (n=5), the C-20 conjugate (n=5) or the C-22 conjugate (n=3). After 5 weeks, following an overnight fast, the animals were anesthetized using ketamine, the liver was removed, and the animals were sacrificed by ketamine overdose. A 0.5 gm sample of liver was homogenized in 5 ml of buffered saline. Liver lipids were extracted from the homogenate by the Folch method using chloroform:methanol (2:1, vol/vol). Half a ml of the homogenate were extracted in 5 ml of the Folch solution. After evaporation of the solvent the lipids were weighed and reevaporated several times until constant weight was obtained. The proteins were quantified in another aliquot of the homogenate according to the method of Bradford. (Bradford M. M., Annal Biochem. 1976, 72:248).
# The lipid protein ratio (mg/mg) was calculated. The results for each group are given as means (+St. Dev.) The group values were: […]
row,Structure (SMILES),"lipid protein ratio in liver, mean (+St. Dev.)"
1,CCCCCCCCCCCCCCCCCCCCCC(=O)NC1CCC2(C)C(C1)CC(O)C1C2CC(O)C2(C)C(C(C)CCC(=O)O)CCC12 (centres unmarked) [C-22 BAFAC],3.00 ± 1.08 mg/mg
2,CCCCCCCCCCCCCCCC(=O)NC1CCC2(C)C(C1)CC(O)C1C2CC(O)C2(C)C(C(C)CCC(=O)O)CCC12 (centres unmarked) [C-16 BAFAC],2.25 ± 1.20 mg/mg
